# Measured values published in patent publication US12331040B2 (Karyopharm Therapeutics Inc., priority 2013, dated 2025).
# How the values were obtained:
# Test in all cases: MTT cell proliferation assay
# Type in all cases: cell-based
# AML-193 cells = settings: 72-hour MTT
# Description: (§1) The MTT cell proliferation assay was used to study the cytotoxic properties of the compounds. The assay was performed according to the method described by Roche Molecular Biochemicals, with minor modifications. The assay is based on the cleavage of the tetrazolium salt, MTT, in the presence of an electron-coupling reagent. The water-insoluble formazan salt produced must be solubilized in an additional step. Cells grown in a 96-well tissue culture plate were incubated with the MTT solution for approximately 4 hours. After this incubation period, a water-insoluble formazan dye formed. After solubilization, the formazan dye was quantitated using a scanning multi-well spectrophotometer (ELISA reader). […] The cells were seeded at 5,000-10,000 cells in each well of 96-well plate in 100 μL of fresh culture medium and were allowed to attach overnight. The stock solutions of the compounds were diluted in 100 μL cell culture medium to obtain eight concentrations of each test compound, ranging from 1 nM to 30 μM. […] All optical densities were measured at 490 nm using a Vmax Kinetic Microplate Reader (Molecular Devices). In most cases, the assay was performed in duplicate and the results were presented as a mean percent inhibition to the negative control±SE. The following formula was used to calculate the percent of inhibition: Inhibition (%)=(1−(ODo/OD))×100.
# (§2) Compounds 504, 510, 525 and 585 were further tested against selected solid and hematological cancer cell lines and selected normal cell lines in a 72-hour MTT cell proliferation assay.
# BL-2 cells = settings: BL2, 72-hour MTT
# Description: as §1, §2
# CAMA-1 cells = settings: Homo sapiens, 72-hour MTT
# Description: as §1, §2
# DB cells = settings: Homo sapiens, 72-hour MTT
# Description: as §1, §2
# DU-4475 cells = settings: Homo sapiens, 72-hour MTT
# Description: as §1, §2
# Daudi cells = settings: Homo sapiens, 72-hour MTT
# Description: as §1, §2
# HCC-1428 cells = settings: Homo sapiens, HCC1428, 72-hour MTT
# Description: as §1, §2
# HCC-202 cells = settings: HCC202, 72-hour MTT
# Description: as §1, §2
# HCC-4006 cells = settings: Homo sapiens, HCC4006, 72-hour MTT
# Description: as §1, §2
# HCI-H358 cells = settings: 72-hour MTT
# Description: as §1, §2
# HCT116 cells = settings: Homo sapiens, HCT-116, 72-hour MTT
# Description: as §1, §2
# HEL.92.1.7 cells = settings: Homo sapiens, 72-hour MTT
# Description: as §1, §2
# Hs578T cells = settings: Homo sapiens, Hs-578T, 72-hour MTT
# Description: as §1, §2
# HuCCT-1 cells = settings: Homo sapiens, 72-hour MTT
# Description: as §1, §2
# KG-1 cells = settings: Homo sapiens, 72-hour MTT
# Description: as §1, §2
# L3.6pl cells = settings: Homo sapiens, 72-hour MTT
# Description: as §1, §2
# LN18 cells = settings: Homo sapiens, LN-18, 72-hour MTT
# Description: as §1, §2
# LS-174T cells = settings: Homo sapiens, LS174T, 72-hour MTT
# Description: as §1, §2
# LS-180 cells = settings: Homo sapiens, LS180, 72-hour MTT
# Description: as §1, §2
# MCF-10A cells = settings: Homo sapiens, 72-hour MTT
# Description: as §1, §2
# MiaPaCa-2 cells = settings: Homo sapiens, MIA PaCa-2, 72-hour MTT
# Description: as §1, §2
# NCI-H1563 cells = settings: Homo sapiens, 72-hour MTT
# Description: as §1, §2
# NCI-H1650 cells = settings: Homo sapiens, 72-hour MTT
# Description: as §1, §2
# NCI-H2030 cells = settings: Homo sapiens, 72-hour MTT
# Description: as §1, §2
# NCI-H2122 cells = settings: Homo sapiens, 72-hour MTT
# Description: as §1, §2
# NCI-H28 cells = settings: Homo sapiens, 72-hour MTT
# Description: as §1, §2
# NCI-H69 cells = settings: Homo sapiens, 72-hour MTT
# Description: as §1, §2
# NCI-H889 cells = settings: Homo sapiens, 72-hour MTT
# Description: as §1, §2
# PANC-10.05 cells = settings: Homo sapiens, Panc1005, 72-hour MTT
# Description: as §1, §2
# Panc-1 cells = settings: Homo sapiens, 72-hour MTT
# Description: as §1, §2
# Pfieffer cells = settings: 72-hour MTT
# Description: as §1, §2
# RL cells = settings: Homo sapiens, 72-hour MTT
# Description: as §1, §2
# Raji cells = settings: Homo sapiens, 72-hour MTT
# Description: as §1, §2
# SHP-77 cells = settings: Homo sapiens, SHP77, 72-hour MTT
# Description: as §1, §2
# SKOV3 cells = settings: Homo sapiens, SK-OV-3, 72-hour MTT
# Description: as §1, §2
# SNU-398 cells = settings: Homo sapiens, 72-hour MTT
# Description: as §1, §2
# SW-1417 cells = settings: Homo sapiens, SW1417, 72-hour MTT
# Description: as §1, §2
# SW-620 cells = settings: Homo sapiens, 72-hour MTT
# Description: as §1, §2
# TFK-1 cells = settings: 72-hour MTT
# Description: as §1, §2
structure (smiles),measurement,setting,value
"Nc1ccc(/C=C/C(=O)NCc2cc3cc(-c4ccc(C(=O)N5CCC(F)(F)CC5)cn4)cc(C(F)(F)F)c3o2)cn1 [Compound 585, (E)-3-(6-aminopyridin-3-yl)-N-((5-(5-(4,4-difluoropiperidine-1-carbonyl)pyridin-2-yl)-7-(trifluoromethyl)benzofuran-2-yl)methyl)acrylamide]",IC50,AML-193 cells,30 nM
same,IC50,BL-2 cells,180 nM
same,IC50,CAMA-1 cells,1060 nM
same,IC50,DB cells,290 nM
same,IC50,DU-4475 cells,90 nM
same,IC50,Daudi cells,40 nM
same,IC50,HCC-1428 cells,4.4 µM
same,IC50,HCC-202 cells,1690 nM
same,IC50,HCC-4006 cells,740 nM
same,IC50,HCI-H358 cells,800 nM
same,IC50,HCT116 cells,9.82 µM
same,IC50,HEL.92.1.7 cells,120 nM
same,IC50,Hs578T cells,250 nM
same,IC50,HuCCT-1 cells,60 nM
same,IC50,KG-1 cells,150 nM
same,IC50,L3.6pl cells,70 nM
same,IC50,LN18 cells,1660 nM
same,IC50,LS-174T cells,8.8 µM
same,IC50,LS-180 cells,150 nM
same,IC50,MCF-10A cells,140 nM
same,IC50,MiaPaCa-2 cells,880 nM
same,IC50,NCI-H1563 cells,390 nM
same,IC50,NCI-H1650 cells,530 nM
same,IC50,NCI-H2030 cells,300 nM
same,IC50,NCI-H2122 cells,5.81 µM
same,IC50,NCI-H28 cells,200 nM
same,IC50,NCI-H69 cells,80 nM
same,IC50,NCI-H889 cells,60 nM
same,IC50,PANC-10.05 cells,870 nM
same,IC50,Panc-1 cells,840 nM
same,IC50,Pfieffer cells,80 nM
same,IC50,RL cells,210 nM
same,IC50,Raji cells,90 nM
same,IC50,SHP-77 cells,210 nM
same,IC50,SKOV3 cells,> 10 µM
same,IC50,SNU-398 cells,4.42 µM
same,IC50,SW-1417 cells,1270 nM
same,IC50,SW-620 cells,140 nM
same,IC50,TFK-1 cells,1030 nM
